Results on five compounds are retold here after patent publication US5576341A, “2-[[2-(N-isobutyl-N-methyl)amino]benzylsulfinyl]-benzimidazole as antimicrobial agent” (Nippon Chemiphar Co., Ltd., priority 1993, dated 1996).

Values after ≈ are worked out from the molar mass of the structure shown.

Test [1] has as its system Helicobacter pylori ATCC 43579. The test is described as follows: MIC by agar plate dilution method (Experimental 2), ATCC 43579. The note with it: ATCC43579, 144 h.
The test system of test [2] is Helicobacter pylori ATCC 43526. As to the kind of experiment: MIC by agar plate dilution method (Experimental 2), ATCC 43526. The note with it: ATCC43526, 144 h.
The test system of test [3] is Helicobacter pylori ATCC 43629. As to the kind of experiment: MIC by agar plate dilution method (Experimental 2), ATCC 43629. The note with it: ATCC43629, 144 h.
For test [4], the system named is Helicobacter pylori NCTC 11637. As to the kind of experiment: MIC by agar plate dilution method (Experimental 2), NCTC 11637. The note with it: NCTC11637, 144 h.
Test [5] concerns Helicobacter pylori Wild 1. As to the kind of experiment: MIC by agar plate dilution method (Experimental 2), Wild 1. The conditions noted are these: WILD1, 144 h.
For test [6], the system named is Helicobacter pylori. As to the kind of experiment: microbe, parasite or virus in culture. The conditions noted are these: 144 h, read-out: MIC (minimal inhibitory concentration).
The subject of test [7] is Helicobacter pylori Wild 1. As to the kind of experiment: MIC by agar plate dilution method (Experimental 2), Wild 1 (first line). The conditions noted are these: WILD1, 144 h.
The subject of test [8] is Helicobacter pylori. The note with it: Antimicrobial Agents and Chemotherapy, March 1991, p.490-496; cited from earlier work.

As for `CN/C(=N/CCSCc1nc[nH]c1C)NC#N` [Cimetidine], the MIC in test [1], in test [2] and in test [3] was 800 µg/mL (≈ 3170 µM) each time.
For the compound `CC(C)CN(C)c1ccccc1C[S+]([O-])c1nc2ccccc2[nH]1` (stereo not drawn) [Compound (1), 2-[[2-(N-isobutyl-N-methyl)amino]benzylsulfinyl]benzimidazole], the MIC in test [4] was 25 µg/mL (≈ 73.2 µM); in test [5] it was 50 µg/mL (≈ 146 µM); in test [1], 25 µg/mL (≈ 73.2 µM); in test [2], 25 µg/mL (≈ 73.2 µM); in test [3] it was 12.5 µg/mL (≈ 36.6 µM); in the test with Helicobacter pylori [6], 12.5 µg/mL (≈ 36.6 µM). In test [7], this compound registered an MIC of 50 µg/mL (≈ 146 µM).
On to `NC(N)=Nc1nc(CSCCC(N)=NS(N)(=O)=O)cs1` [Famotidine], for which the MIC is 800 µg/mL (≈ 2370 µM) in test [1], greater than 800 µg/mL in test [2] and 800 µg/mL (≈ 2370 µM) in test [3].
`COc1ccc2[nH]c([S+]([O-])Cc3ncc(C)c(OC)c3C)nc2c1` (stereo not drawn) [Omeprazole]: the MIC in test [4] came out at 50 µg/mL (≈ 145 µM); in test [5], 50 µg/mL (≈ 145 µM); in test [1] it was 12.5 µg/mL (≈ 36.2 µM); in test [2], 12.5 µg/mL (≈ 36.2 µM); in test [3], 12.5 µg/mL (≈ 36.2 µM); in test [7] it was 50 µg/mL (≈ 145 µM). Besides, the “antimicrobial activity against Helicobacter pylori (in words)” value in the test with Helicobacter pylori [8] was “have antimicrobial activity against Helicobacter pylori”.
In the case of `Cc1c(OCC(F)(F)F)ccnc1C[S+]([O-])c1nc2ccccc2[nH]1` (stereo not drawn) [lansoprazole], the “antimicrobial activity against Helicobacter pylori (in words)” value with Helicobacter pylori [8] is listed as “have antimicrobial activity against Helicobacter pylori”.
